Measurements: patent publication US7655695B2, “Illudin analogs useful as anticancer agents” (The Regents of The University of California, priority 2005, dated 2010)
Converted amounts (≈) assume the structure as drawn. Where two headings read alike, the source gives them in different places.

Legend:
[1] = test system: PC-3 prostate carcinoma; assay: MTS viability assay, 1 hour exposure, PC-3; assay type: cell-based; settings: PC-3, 1 hour exposure
Description: (§1) Using four different cell lines, HT29 colon, OVCAR-3 ovarian, AsPC-1 pancreatic, and PC-3 prostate carcinoma, the IC50 values of compound 6 and irofulven were established for one hour incubations using the MTS viability assay (Buttke T. M. et al., J Immunol Methods. 1993, 157, 233).

[2] = Pharmacokinetics after single intravenous administration in male CD-1 mice; assay type: in vivo, mouse; settings: for clearance: read-out: CLp (converted); for Vd: read-out: Vdss
Description: The pharmacokinetics (PK) of Compound 6 was investigated in the CD-1 male mouse. A single intravenous administration of 5 mg/kg was followed by sequential blood collections and analysis of plasma by LC/MS/MS.

[3] = test system: AsPC-1 pancreatic carcinoma; assay: MTS viability assay, 1 hour exposure, AsPC-1; assay type: cell-based
Description: as §1

[4] = test system: MV522 lung cancer cells; assay: Thymidine incorporation into cellular DNA, 2 hour exposure, MV522 tumor cell line; assay type: cell-based; settings: MV522, 2 hour exposure
From the text: The anti-cancer activities of compounds 6, 7, 14, 16, 18, 20, 21 and 22 were compared to that of irofulven, 3, using MV522 lung cancer cells in vitro (See Kelner M. J. et al., Cancer Res. 1987, 47, 3186).

[5] = test system: HT29 colon carcinoma; assay: MTS viability assay, 1 hour exposure, HT29; assay type: cell-based; settings: Homo sapiens, HT-29, HT29, 1 hour exposure
Description: as §1

[6] = test system: subcutaneous MV522 tumors; assay: MV522 mouse xenograft model; assay type: in vivo; settings: 3/wk for 21 d; for PR (Partial Response): mice with partial response/mice
Description: The MV522 xenograft model was used to test the in vivo activity of compounds 6 and 7 as previously described (Kelner M. J. et al., Invest New Drugs. 1996, 14, 161). Mice bearing subcutaneous MV522 tumors were dosed intraperitoneally three times a week for three weeks (3/wk for 21 d) at 10 mg/kg of irofulven, doses ranging from 7.5 to 10 mg/kg for compound 6, or 5 to 15 mg/kg for compound 7 (FIGS. 1 and 2 and Table 3). Compound 6 had potent anti-tumor activity against MV522 tumors, producing 4/6 and 5/5 partial responses in mice treated with 7.5 and 10 mg/kg doses, respectively.
The MV522 xenograft model was used to test the in vivo activity of Compound 6 administration on a weekly schedule. Nude mice bearing subcutaneous MV522 tumors were dosed intraperitoneally (IP) 1/wk for 14 d at 17.5 mg/kg Compound 6 vs 7.5 mg/kg Compound 6 or 10 mg/kg irofulven on the intermittent schedule (3/wk for 21 d). The comparator dosages were the previously-determined efficacious MTDs for the 3/wk for 21 d schedule (FIG. 5).

[7] = Maximum tolerated dose on the 3/wk for 21 d schedule; settings: nude, mouse, in vivo, IP, read-out: previously-determined efficacious MTD
Description: A novel dosing schedule for acyfulvene analogs is described herein. This dosing schedule requires less frequent administration of individual dosages exceeding the previously-determined maximum tolerated dose (MTD) for each dose on an intermittent schedule of 3/wk for 21 d. For example, compound 6 was tested on a dosing schedule of 1/wk for 14 d. On this schedule, the total cumulative dose was less than the total cumulative dose administered on the 3/wk for 21 d-schedule, but with equal efficacy (FIG. 5). The 3/wk for 21 d dosing schedule is a standard method of administration for irofulven. The 1/wk for […] schedule for Compound 6 disclosed herein was unexpected based on prior work and presents a unique opportunity to administer less total dose of a cytotoxic chemotherapeutic less frequently and thereby reduce the overall toxic effect on the patient. This represents an increase in human safety and compliance, as a weekly dosing schedule is easier to follow than a more frequent dosing schedule.
The MV522 xenograft model was used to test the in vivo activity of Compound 6 administration on a weekly schedule. […] The comparator dosages were the previously-determined efficacious MTDs for the 3/wk for 21 d schedule (FIG. 5).

[8] = test system: OVCAR-3 ovarian carcinoma; assay: MTS viability assay, 1 hour exposure, OVCAR-3; assay type: cell-based; settings: Homo sapiens, OVCAR-3, 1 hour exposure
Description: as §1

[9] = Plasma stability in pooled fresh human plasma at 37° C., LC/MS/MS; assay type: in vitro ADME
From the text: Compounds 6 and 7 were compared against irofulven for their respective plasma stability (e.g., the enhanced stability or in vivo terminal phase elimination half life (T½) of a compound in plasma; it is believed that the greater the stability and T½ the more likely it is that the compound will be incorporated into or have an effect on a cancerous cell, such as cells of a tumor or a hematologic cancerous cell). Pooled fresh human plasma was spiked with each analog, and the compound stability profile was measured at 37° C. using LC/MS/MS. […] These properties differentiate Compounds 6 and 7 from irofulven and may have enhanced therapeutic potential. The increased plasma stability of Compound 6 may be particularly advantageous in drug formulation and delivery as it relates to increased exposure of the tumor to the drug. Thus, compound 6 has increased stability in human plasma in vitro (FIG. 3).

[10] = mouse, plasma, 5 mg/kg IV, concentrations extrapolated from a 12.9 mg/kg IV dose
[11] = Homo sapiens, ASPC1, AsPC-1, 1 hour exposure, read-out: GI50
[12] = mouse, plasma, 5 mg/kg single IV

CC1=C(CO)C2=C(C)C3(CC3)[C@@](C)(O)C(=O)C2=C1 [Irofulven, 6-hydroxymethylacylfulvene, reference compound]
GI50 [1]: 0.58 µg/mL (≈ 2.35 µM) | AUC(0-inf) [2, 10]: 695 ng·h/mL | half-life [2, 10]: 0.0988 h | AUC(0-t) ([2]; mouse, plasma, 5 mg/kg IV, concentrations extrapolated from a 12.9 mg/kg IV dose, read-out: AUC (0-t)): 691 ng·h/mL | clearance [2, 10]: 120 mL/min/kg | Cmax ([2]; mouse, plasma, 5 mg/kg IV, concentrations extrapolated from a 12.9 mg/kg IV dose, read-out: Cmax): 5650 ng/mL | Vd [2, 10]: 0.948 L/kg | GI50 [3, 11]: > 100 µg/mL | IC50 [4]: 1200 ± 100 nM | GI50 [5]: 1.4 µg/mL (≈ 5.68 µM) | % Tumor Growth Inhibition ([6]; 10 mg/kg i.p.): 100% | Relative Mean Tumor Weight (Wt/Wi) ([6]; 10 mg/kg i.p.): 0.8 | PR (Partial Response) ([6]; 10 mg/kg i.p.): 6/7 | MTD at 21 d [7]: 10 mg/kg | GI50 [8]: 0.15 µg/mL (≈ 0.609 µM)

CC1=C(CN(O)C(N)=O)C2=C(C)C3(CC3)[C@@](C)(O)C(=O)C2=C1 [Compound 6, N-hydroxy-N-(methylacylfulvene)urea]
GI50 [1]: 0.41 µg/mL (≈ 1.35 µM) | AUC(0-t) ([2]; 5 mg/kg single IV): greater | CLp ([2]; 5 mg/kg single IV): reduced | Cmax ([2]; 5 mg/kg single IV): greater | T1/2 ([2]; 5 mg/kg single IV): significantly longer | Vdss ([2]; 5 mg/kg single IV): reduced | AUC(0-inf) [2, 12]: 2200 ng·h/mL | half-life [2, 12]: 2.36 h | AUC(0-t) ([2]; mouse, plasma, 5 mg/kg single IV, read-out: AUC (0-t)): 2200 ng·h/mL | clearance [2, 12]: 37.8 mL/min/kg | Cmax ([2]; mouse, plasma, 5 mg/kg single IV, read-out: Cmax): 9730 ng/mL | Vd [2, 12]: 0.548 L/kg | GI50 ([3]; AsPC-1, 1 hour exposure): greater potency | GI50 [3, 11]: 16 µg/mL (≈ 52.6 µM) | stability in human plasma compared with irofulven [9]: more stable | GI50 [5]: 0.68 µg/mL (≈ 2.23 µM) | % Tumor Growth Inhibition ([6]; 7.5 mg/kg i.p.): 100% | Relative Mean Tumor Weight (Wt/Wi) ([6]; 7.5 mg/kg i.p.): 0.9 | PR (Partial Response) ([6]; 7.5 mg/kg i.p.): 4/6 | % Tumor Growth Inhibition ([6]; 10 mg/kg i.p.): 100% | Relative Mean Tumor Weight (Wt/Wi) ([6]; 10 mg/kg i.p.): 0.3 | PR (Partial Response) ([6]; 10 mg/kg i.p.): 5/5 | MTD at 21 d [7]: 7.5 mg/kg | GI50 [8]: 0.6 µg/mL (≈ 1.97 µM)

CC(=O)ON(CC1=C(C)C=C2C(=O)[C@](C)(O)C3(CC3)C(C)=C21)C(N)=O [Compound 7, N-Acetoxy-N-(methylacylfulvene)urea]
stability in human plasma compared with irofulven [9]: less stable | % Tumor Growth Inhibition ([6]; 5 mg/kg i.p.): 56% | Relative Mean Tumor Weight (Wt/Wi) ([6]; 5 mg/kg i.p.): 4.5 | % Tumor Growth Inhibition ([6]; 5 mg/kg i.p., listed as compound 7): 56% | % Tumor Growth Inhibition ([6]; 10 mg/kg i.p.): 79% | Relative Mean Tumor Weight (Wt/Wi) ([6]; 10 mg/kg i.p.): 2.2 | % Tumor Growth Inhibition ([6]; 10 mg/kg i.p., listed as compound 7): 79% | % Tumor Growth Inhibition ([6]; 15 mg/kg i.p.): 100% | Relative Mean Tumor Weight (Wt/Wi) ([6]; 15 mg/kg i.p.): 0.7 | PR (Partial Response) ([6]; 15 mg/kg i.p.): 4/6
